Laboratory results published in PMC6689975, “Novel Cell Wall Antifungals Reveal a Special Synergistic Activity in pbr1 Mutants Resistant to the Glucan Synthesis Antifungals Papulacandins and Echinocandins” (Frontiers in Microbiology, 2019).
Converted amounts (≈) assume the structure as drawn.

The compounds below were run on C. albicans wild-type (assay: microbe, parasite or virus in culture). Conditions: Candida albicans, 48 h, read-out: MIC.
Design: species or system whole yeast cells; macro tube broth dilution MIC in YEPD at 30 C, visual clearness of medium
Description: (§1) Standard YEPD (Yeast Extract, Peptone, Dextrose) ([Sherman, 1990]), YEPD+S (YEPD with 1.2M sorbitol), YES (Yeast Extract, Dextrose and Supplements of Adenine, Histidine, Leucine, Uracil and Lysine) ([Alfa et al., 1993]) and YES+S (YES with 1.2 M sorbitol) ([Ribas et al., 1991]; [Ishiguro et al., 1997]), media were used for determination of MIC values of the tested compounds. A stock solution of 10 mg/ml of each tested compounds was prepared in DMSO and serial dilutions in DMSO were prepared. The final concentration of DMSO was 2% in the YEPD medium. […] The serial dilutions of compounds were dispensed into test tubes with 1 ml of YEPD or YEPD+S to make final concentrations of 200, 100, 50, 25, 12.5, 6.26, 3.125, 1.6, 0.8 and 0.4 μg/ml. The tested yeast strains were previously grown in YEPD, YEPD+S, YES or YES+S agar plates at 30°C for 48 h. For inoculation of YEPD or YEPD+S macro test tubes a suspension of tested fungus was produced with 10^5 cfu/ml (cfu - colony forming unit). 10 μl of suspension was used for inoculation of each tube. After 48 h incubation at 30°C the tubes were checked. The MIC value is the lowest concentration of the tested compound that could inhibit the fungal growth and the medium remained clear. From each tube 10 μl culture was plated on YEPD agar medium to check the contamination. The MIC tests were carried out in three parallels. The screening of the first generation of isochromanones was carried out in YEPD and YEPD+S media (1E-16E). The fungal strains analyzed are: C. albicans wild-type ATCC 26555, SC5314 and ATCC 90028, S. cerevisiae wild-type CVX12-3A and pbr1-1 mutant, and S. pombe wild-type (972h^–), pbr1-8 mutant and pbr1-6 mutant. The bold numbers in Tables 4–6 indicate the more efficient compounds. […] The weak or moderate efficacy against the C. albicans wild-type strains was observed by some substances (3E, 4Z, 5Z, 10E, 15, and 16E). The efficiency toward the S. pombe pbr1-6 mutant strain was the highest inhibitory activity, except 7E, 11E, 12 and 14E. […] As regards the other S. pombe pbr1-8 mutant strain, the antifungal activity of the tested compounds was slightly lower, but the substances with the best activity are partly identical to the best compounds mentioned with pbr1-6, (i.e., 1E, 3E, 4Z, 5Z).
`O=C1OCc2ccccc2/C1=C\c1ccccc1Cl` [8E] gave an MIC of over 200 µg/mL. Work on `O=C1OCc2ccccc2/C1=C/c1ccc[nH]1` [5Z] yielded an MIC of 100 µg/mL (≈ 444 µM). Work on `O=C1OCc2ccccc2/C1=C/c1ccccc1` [1Z] yielded an MIC of over 200 µg/mL. With `O=C1OCc2ccccc2/C1=C\c1ccccc1[N+](=O)[O-]` [11E] the MIC was over 200 µg/mL. With `O=C1OCc2ccccc2/C1=C\c1cccc(O)c1` [16E] the MIC was 200 µg/mL (≈ 793 µM).

These compounds were tested on T1, S. cerevisiae wild-type CVX12-3A (assay: microbe, parasite or virus in culture). Conditions: Saccharomyces cerevisiae, 48 h, read-out: MIC.
T1 construct: CVX12-3A
Design: species or system whole yeast cells; macro tube broth dilution MIC in YEPD at 30 C, visual clearness of medium
Description: as §1
`O=C1OCc2ccccc2/C1=C\c1ccccc1Cl` [8E] showed an MIC of 100 µg/mL (≈ 369 µM). Compound `O=C1OCc2ccccc2/C1=C/c1ccc[nH]1` [5Z] has an MIC of 100 µg/mL (≈ 444 µM). In the case of `O=C1OCc2ccccc2/C1=C/c1ccccc1` [1Z], the MIC was 100 µg/mL (≈ 423 µM). `O=C1OCc2ccccc2/C1=C\c1ccccc1[N+](=O)[O-]` [11E] gave an MIC of 200 µg/mL (≈ 711 µM). In the case of `O=C1OCc2ccccc2/C1=C\c1cccc(O)c1` [16E], the MIC was 200 µg/mL (≈ 793 µM).

These compounds were tested on T2, S. pombe wild-type 972 h- (assay: microbe, parasite or virus in culture). Conditions: Schizosaccharomyces pombe, 48 h, read-out: MIC.
T2 construct: 972 h-
Design: species or system whole yeast cells; macro tube broth dilution MIC in YEPD at 30 C, visual clearness of medium
Description: as §1
Compound `O=C1OCc2ccccc2/C1=C\c1ccccc1Cl` [8E] has an MIC of 50 µg/mL (≈ 185 µM). For `O=C1OCc2ccccc2/C1=C/c1ccc[nH]1` [5Z], the MIC was 25 µg/mL (≈ 111 µM). With `O=C1OCc2ccccc2/C1=C/c1ccccc1` [1Z] the MIC was 50 µg/mL (≈ 212 µM). With `O=C1OCc2ccccc2/C1=C\c1ccccc1[N+](=O)[O-]` [11E] the MIC was 100 µg/mL (≈ 356 µM). Work on `O=C1OCc2ccccc2/C1=C\c1cccc(O)c1` [16E] yielded an MIC of 100 µg/mL (≈ 396 µM).

Test system: C. albicans wild-type
Assay: microbe, parasite or virus in culture
Design: species or system whole yeast cells; macro tube broth dilution MIC in YEPD at 30 C, visual clearness of medium
Conditions: Candida albicans, 48 h, read-out: MIC
Remark: another data set of the same source
Description: as §1
For `O=C1OCc2ccccc2/C1=C\c1ccccc1Cl` [8E], the MIC was over 200 µg/mL. In the case of `O=C1OCc2ccccc2/C1=C/c1ccc[nH]1` [5Z], the MIC was 100 µg/mL (≈ 444 µM). For `O=C1OCc2ccccc2/C1=C/c1ccccc1` [1Z], the MIC was over 200 µg/mL. Work on `O=C1OCc2ccccc2/C1=C\c1ccccc1[N+](=O)[O-]` [11E] yielded an MIC of over 200 µg/mL. `O=C1OCc2ccccc2/C1=C\c1cccc(O)c1` [16E] was tested, and the MIC was 200 µg/mL (≈ 793 µM).

What follows are compounds tested on T1, S. cerevisiae wild-type CVX12-3A (assay: microbe, parasite or virus in culture). Conditions: Saccharomyces cerevisiae, read-out: MIC.
Design: species or system whole yeast cells; micro-culture broth dilution MIC in YES at 30 C, turbidity, complete growth inhibition
Description: (§2) Standard YEPD (Yeast Extract, Peptone, Dextrose) ([Sherman, 1990]), YEPD+S (YEPD with 1.2M sorbitol), YES (Yeast Extract, Dextrose and Supplements of Adenine, Histidine, Leucine, Uracil and Lysine) ([Alfa et al., 1993]) and YES+S (YES with 1.2 M sorbitol) ([Ribas et al., 1991]; [Ishiguro et al., 1997]), media were used for determination of MIC values of the tested compounds. A stock solution of 10 mg/ml of each tested compounds was prepared in DMSO and serial dilutions in DMSO were prepared. The final concentration of DMSO was 2% in the YEPD medium. […] The serial dilutions of compounds were dispensed into test tubes with 1 ml of YEPD or YEPD+S to make final concentrations of 200, 100, 50, 25, 12.5, 6.26, 3.125, 1.6, 0.8 and 0.4 μg/ml. The tested yeast strains were previously grown in YEPD, YEPD+S, YES or YES+S agar plates at 30°C for 48 h. Micro-culture assays of large numbers of samples were analyzed as described) ([Martins et al., 2011]). Essentially early log-phase cells were grown in YEPD, YEPD+S, YES or YES+S (1.2 M sorbitol) medium at 30°C, and diluted to cell density of 4 X 10^6 cells/ml in YEPD, YEPD+S, YES or YES+S medium and aliquots of 100 μl were dispensed into each small test tube (3 ml test tube size). Then, another 100 μl of YEPD, YEPD+S, YES or YES+S with the corresponding dilution of each compound at 2X concentration (4% DMSO) was added. The final volume was 200 μl, with the cells diluted to of 2 X 10^6 cells/ml and each compound diluted to 1X final concentration, containing increasing concentrations of antifungal (0, 1, 2, 5, 10, 20, 50, 100 and 200 μg/ml) or an equivalent volume of solvent (2% DMSO). The cells were grown at 30°C in an orbital roller and turbidity was analyzed after 24 and 48 h of incubation. The MIC was determined as the minimal concentration of tested compound that produced complete cell growth inhibition and kept the medium clear. The MIC values were calculated from at least three independent experiments. Next, the first generation of isochromanones (1E-16E) was also screened in YES medium (Table 5) and exerted a weaker antifungal potency than in YEPD medium and also than the second family of isochromanones in YES medium (17E-30E) (Table 6). The strains are partly different from the previously mentioned ones (Tables 5, 6) analyzing two wild type C. albicans strains because they behaved similarly in YEPD. It is remarkable that there was no effect against either the C. albicans, the S. cerevisiae, or the S. pombe wild-type strains, except with 30E.
For `Cc1ccccc1/C=C1/C(=O)OCc2ccccc21` [20E], the MIC was over 200 µg/mL. Compound `O=C1OCc2ccccc2/C1=C\c1ccccc1Cl` [8E] has an MIC of over 200 µg/mL. In the case of `O=C1OCc2ccccc2/C1=C/c1ccc[nH]1` [5Z], the MIC was over 200 µg/mL. Work on `O=C1OCc2ccccc2/C1=C/c1ccccc1` [1Z] yielded an MIC of over 200 µg/mL. `O=C1OCc2ccccc2/C1=C\c1ccccc1[N+](=O)[O-]` [11E] was tested, and the MIC was over 200 µg/mL. `O=C1OCc2ccccc2/C1=C\c1cccc(O)c1` [16E] was tested, and the MIC was over 200 µg/mL.

These compounds were tested on T2, S. pombe wild-type 972 h- (assay: microbe, parasite or virus in culture). Conditions: Schizosaccharomyces pombe, read-out: MIC.
Design: species or system whole yeast cells; micro-culture broth dilution MIC in YES at 30 C, turbidity, complete growth inhibition
Description: as §2
`Cc1ccccc1/C=C1/C(=O)OCc2ccccc21` [20E] showed an MIC of over 200 µg/mL. `O=C1OCc2ccccc2/C1=C\c1ccccc1Cl` [8E] gave an MIC of over 200 µg/mL. In the case of `O=C1OCc2ccccc2/C1=C/c1ccc[nH]1` [5Z], the MIC was over 200 µg/mL. Compound `O=C1OCc2ccccc2/C1=C/c1ccccc1` [1Z] has an MIC of over 200 µg/mL. `O=C1OCc2ccccc2/C1=C\c1ccccc1[N+](=O)[O-]` [11E] was tested, and the MIC was over 200 µg/mL. Work on `O=C1OCc2ccccc2/C1=C\c1cccc(O)c1` [16E] yielded an MIC of over 200 µg/mL.

The compounds below were run on C. albicans wild-type (assay: microbe, parasite or virus in culture). Conditions: Candida albicans, read-out: MIC.
Design: species or system whole yeast cells; micro-culture broth dilution MIC in YES at 30 C, turbidity, complete growth inhibition
Description: as §2
With `Cc1ccccc1/C=C1/C(=O)OCc2ccccc21` [20E] the MIC was over 200 µg/mL. `O=C1OCc2ccccc2/C1=C\c1ccccc1Cl` [8E] gave an MIC of over 200 µg/mL. `O=C1OCc2ccccc2/C1=C/c1ccc[nH]1` [5Z] was tested, and the MIC was over 200 µg/mL. With `O=C1OCc2ccccc2/C1=C/c1ccccc1` [1Z] the MIC was over 200 µg/mL. `O=C1OCc2ccccc2/C1=C\c1ccccc1[N+](=O)[O-]` [11E] gave an MIC of over 200 µg/mL. `O=C1OCc2ccccc2/C1=C\c1cccc(O)c1` [16E] was tested, and the MIC was over 200 µg/mL.

Test system: C. albicans wild-type
Assay: microbe, parasite or virus in culture
Design: species or system whole yeast cells; micro-culture broth dilution MIC in YES at 30 C, turbidity, complete growth inhibition
Conditions: Candida albicans, read-out: MIC
Remark: another data set of the same source
Description: as §2
With `Cc1ccccc1/C=C1/C(=O)OCc2ccccc21` [20E] the MIC was over 200 µg/mL.

Test system: C. albicans wild-type
Assay: microbe, parasite or virus in culture
Design: species or system whole yeast cells; macro tube broth dilution MIC in YEPD at 30 C, visual clearness of medium
Conditions: Candida albicans, 48 h, read-out: MIC
Remark: another data set of the same source
Description: as §1
Work on `O=C1OCc2ccccc2/C1=C\c1ccccc1Cl` [8E] yielded an MIC of 200 µg/mL (≈ 739 µM). Compound `O=C1OCc2ccccc2/C1=C/c1ccc[nH]1` [5Z] has an MIC of 200 µg/mL (≈ 888 µM). With `O=C1OCc2ccccc2/C1=C/c1ccccc1` [1Z] the MIC was 200 µg/mL (≈ 846 µM). In the case of `O=C1OCc2ccccc2/C1=C\c1ccccc1[N+](=O)[O-]` [11E], the MIC was over 200 µg/mL. `O=C1OCc2ccccc2/C1=C\c1cccc(O)c1` [16E] was tested, and the MIC was 50 µg/mL (≈ 198 µM).
